Results from patent publication US5863540A, “Adhesion molecule” (Duke University, priority 1993, dated 1999).

Legend:
[1] = system: T cell receptor-mediated T cell activation; experiment: T cell receptor-mediated T cell activation (anti-CD3ε mab Leu 4) of PBMC, 3H-thymidine, CD44 peptides; type: cell-based, human
Experimental: Synthetic peptides were prepared by FMoc or TBoc chemistry, purified usin
HPLC, and resuspended in RPMI media prior to addition to 4 day in vitro
cultures. Following 4 days in culture, 3Hthymidine was added, and
following an incubation of 4 hours, the cultures were harvested using an
automated multiwell harvester using standard techiques.

[2] = system: CD2-Mediated T Cell Activation; experiment: T Cell Activation Assay: proliferation of PBMC stimulated with CD2 mabs 35.1 and 9-1; type: cell-based, human; settings: soluble, free protein instead of liposomes, data not shown
Experimental: CD44 Liposomes. Liposomes were prepared by the method of Mimms et al. ((1981) Biochemistry 20:833-840), using 1 μM purified CD44 or control glycophorin protein, 1 nM L-α-dioleoyl lecthin (Avanti Polar Lipids, Birmingham, Ala.), and 240 nM OG. Liposomes were analyzed for content of the appropriate protein using a novel labelling technique and flow cytometry. Liposomes were incubated with 5-(N-octadecanoyl) aminofluorescein (Molecular Probes, Eugene, Oreg.) in PBS×10 min at room temperature. Fluoresceinated liposomes were then reacted with […] magnetic beads (Dynabeads M-450 Goat anti-Mouse IgG, Dynal Inc., Great Neck, N.Y.) coated with CD44 (A3D8) or anti-glycophorin (E3,E4,E5) mAbs. After 45 minutes (4° C.), with continuous end-over-end rotation, beads were washed ×3 in PBS using a magnet to immobilize the beads during PBS changes. Fluoresceinated liposome-bead conjugates were then analyzed by flow cytometry.
T Cell Activation Assay. PBMC from healthy donors were stimulated with optimal mitogenic concentration of CD2 mabs 35.1 and 9-1 as described (Denning et al.). Where indicated, CD44 or control glycophorin liposomes (final protein range used was 28-140 nM) were added to these cultures 20 min prior to addition of CD2 mabs. […]

Row | Substance | effect on T cell activation (in words) ([1]; 1 mg/ml peptide, anti-CD3 triggered PBMC cultures) | % Inhibition ([1]; peptide 1 mg/ml, Leu 4 1:1000, 4 day culture) [%] | Δ CPM 3H-Thymidine/106 Cells in Culture ([1]; peptide 1 mg/ml, Leu 4 1:1000, 4 day culture, control 199,816) | effect on CD2 stimulated PBMC culture [2]
1 | (C)NRNDVTGGRRDPNHSEGS (CNRNDVTGGRRDPNHSEGS; N-terminal Cys) [CD44-19A] | inhibition of T cell activation | 75 | 50,318 Δ CPM 3H-Thymidine/106 Cells | 
2 | soluble, free CD44 protein: CD44 protein affinity-purified on A3D8-Sepharose from HuT 78 T cell lysate, single band at 80-85 kD |  |  |  | Identical results
